System: LG0567-F671-PDC complex spheroids viability
Experiment: Anticancer human tumor LG0567-F671-PDC patient-derived lung adenocarcinoma cell line growth inhibition [RAS]
Conditions: for IC50: curve of first compound; for viability, T/C: stronger effect = lower value
Outline: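 Multi-cell-type spheroids: tumor cells plus HUVEC endothelial cells and mesenchymal stem cells. RAS-pathway inhibitors were combined with targeted agents, each dosed in half-log steps down from clinical Cmax, or from 10 microM when Cmax was unknown.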
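Note: spheroids exposed to compound for seven days before readout.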
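Throughout, for IC50: luminescence signal used as a proxy for viable cells.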

CC(Nc1ccc2c(c1)OCCn1cc(N3C(=O)OCC3C(F)F)nc1-2)C(N)=O (centres undefined) + CCn1c(-c2cc(N3CCN(C)CC3)cnc2C(C)OC)c2c3cc(ccc31)-c1csc(n1)CC(NC(=O)C1CC1C)C(=O)N1CCCC(N1)C(=O)OCC(C)(C)C2
IC50 (second compound 0.000949 µM): < 31.6 nM
IC50 (second compound 0.003 µM): < 31.6 nM
IC50 (second compound 0.00949 µM): < 31.6 nM
IC50 (second compound 0.03 µM): < 31.6 nM
IC50 (second compound 0.0949 µM): < 31.6 nM
IC50 (second compound 0.3 µM): < 31.6 nM
viability, T/C (second compound 0.000949 µM, first compound 0.0316 µM): 19.3%
viability, T/C (second compound 0.000949 µM, first compound 0.1 µM): 12.9%
viability, T/C (second compound 0.000949 µM, first compound 0.316 µM): 10.5%
viability, T/C (second compound 0.000949 µM, first compound 1 µM): 7.84%
viability, T/C (second compound 0.000949 µM, first compound 3.16 µM): 7.19%
viability, T/C (second compound 0.000949 µM, first compound 10 µM): 7.14%
viability, T/C (second compound 0.003 µM, first compound 0.0316 µM): 7.68%
viability, T/C (second compound 0.003 µM, first compound 0.1 µM): 7.52%
viability, T/C (second compound 0.003 µM, first compound 0.316 µM): 5.35%
viability, T/C (second compound 0.003 µM, first compound 1 µM): 3.88%
viability, T/C (second compound 0.003 µM, first compound 3.16 µM): 3.53%
viability, T/C (second compound 0.003 µM, first compound 10 µM): 3.37%
viability, T/C (second compound 0.00949 µM, first compound 0.0316 µM): 5.03%
viability, T/C (second compound 0.00949 µM, first compound 0.1 µM): 3.43%
viability, T/C (second compound 0.00949 µM, first compound 0.316 µM): 3.46%
viability, T/C (second compound 0.00949 µM, first compound 1 µM): 2.91%
viability, T/C (second compound 0.00949 µM, first compound 3.16 µM): 1.87%
viability, T/C (second compound 0.00949 µM, first compound 10 µM): 1.74%
viability, T/C (second compound 0.03 µM, first compound 0.0316 µM): 3.07%
viability, T/C (second compound 0.03 µM, first compound 0.1 µM): 2.58%
viability, T/C (second compound 0.03 µM, first compound 0.316 µM): 1.57%
viability, T/C (second compound 0.03 µM, first compound 1 µM): 1.37%
viability, T/C (second compound 0.03 µM, first compound 3.16 µM): 1.64%
viability, T/C (second compound 0.03 µM, first compound 10 µM): 1.25%
viability, T/C (second compound 0.0949 µM, first compound 0.0316 µM): 2.35%
viability, T/C (second compound 0.0949 µM, first compound 0.1 µM): 2.02%
viability, T/C (second compound 0.0949 µM, first compound 0.316 µM): 1.42%
viability, T/C (second compound 0.0949 µM, first compound 1 µM): 1.29%
viability, T/C (second compound 0.0949 µM, first compound 3.16 µM): 1.01%
viability, T/C (second compound 0.0949 µM, first compound 10 µM): 0.89%
viability, T/C (second compound 0.3 µM, first compound 0.0316 µM): 2.27%
viability, T/C (second compound 0.3 µM, first compound 0.1 µM): 1.33%
viability, T/C (second compound 0.3 µM, first compound 0.316 µM): 1.26%
viability, T/C (second compound 0.3 µM, first compound 1 µM): 1.33%
viability, T/C (second compound 0.3 µM, first compound 3.16 µM): 1.18%
viability, T/C (second compound 0.3 µM, first compound 10 µM): 0.92%

CC(Nc1ccc2c(c1)OCCn1cc(N3C(=O)OCC3C(F)F)nc1-2)C(N)=O (centres undefined) + C=CC(=O)N1CCN(c2nc(OCC3CCCN3C)nc3c(F)c(-c4nc(N)cc(C)c4C(F)(F)F)c(Cl)cc23)C(C)C1
IC50 (second compound 0.00316 µM): < 31.6 nM
IC50 (second compound 0.01 µM): < 31.6 nM
IC50 (second compound 0.0316 µM): < 31.6 nM
IC50 (second compound 0.1 µM): < 31.6 nM
IC50 (second compound 0.316 µM): < 31.6 nM
IC50 (second compound 1 µM): < 31.6 nM
viability, T/C (second compound 0.00316 µM, first compound 0.0316 µM): 15.2%
viability, T/C (second compound 0.00316 µM, first compound 0.1 µM): 10.8%
viability, T/C (second compound 0.00316 µM, first compound 0.316 µM): 10.1%
viability, T/C (second compound 0.00316 µM, first compound 1 µM): 7.83%
viability, T/C (second compound 0.00316 µM, first compound 3.16 µM): 7.01%
viability, T/C (second compound 0.00316 µM, first compound 10 µM): 5.88%
viability, T/C (second compound 0.01 µM, first compound 0.0316 µM): 12%
viability, T/C (second compound 0.01 µM, first compound 0.1 µM): 8.85%
viability, T/C (second compound 0.01 µM, first compound 0.316 µM): 8.39%
viability, T/C (second compound 0.01 µM, first compound 1 µM): 5.85%
viability, T/C (second compound 0.01 µM, first compound 3.16 µM): 5.99%
viability, T/C (second compound 0.01 µM, first compound 10 µM): 4.79%
viability, T/C (second compound 0.0316 µM, first compound 0.0316 µM): 10.2%
viability, T/C (second compound 0.0316 µM, first compound 0.1 µM): 9.26%
viability, T/C (second compound 0.0316 µM, first compound 0.316 µM): 7.97%
viability, T/C (second compound 0.0316 µM, first compound 1 µM): 5.73%
viability, T/C (second compound 0.0316 µM, first compound 3.16 µM): 5.76%
viability, T/C (second compound 0.0316 µM, first compound 10 µM): 4.64%
viability, T/C (second compound 0.1 µM, first compound 0.0316 µM): 13%
viability, T/C (second compound 0.1 µM, first compound 0.1 µM): 8.09%
viability, T/C (second compound 0.1 µM, first compound 0.316 µM): 6.28%
viability, T/C (second compound 0.1 µM, first compound 1 µM): 5.63%
viability, T/C (second compound 0.1 µM, first compound 3.16 µM): 5.99%
viability, T/C (second compound 0.1 µM, first compound 10 µM): 4.82%
viability, T/C (second compound 0.316 µM, first compound 0.0316 µM): 10.5%
viability, T/C (second compound 0.316 µM, first compound 0.1 µM): 8.03%
viability, T/C (second compound 0.316 µM, first compound 0.316 µM): 7.03%
viability, T/C (second compound 0.316 µM, first compound 1 µM): 5.34%
viability, T/C (second compound 0.316 µM, first compound 3.16 µM): 6.43%
viability, T/C (second compound 0.316 µM, first compound 10 µM): 5.3%
viability, T/C (second compound 1 µM, first compound 0.0316 µM): 11.4%
viability, T/C (second compound 1 µM, first compound 0.1 µM): 9.66%
viability, T/C (second compound 1 µM, first compound 0.316 µM): 6.71%
viability, T/C (second compound 1 µM, first compound 1 µM): 6.57%
viability, T/C (second compound 1 µM, first compound 3.16 µM): 7.01%
viability, T/C (second compound 1 µM, first compound 10 µM): 5.23%
